Results from US20050282258A1 (priority 2004, published 2005).
Where two headings read alike, the source gives them in different places.

Columns and labels:
yggA transcription = assay type: cell-based, Escherichia coli; conditions: for transcription of the yggA gene upon supplementation of the culture medium: strains carrying the wild-type argP gene; for Beta-galactosidase specific activity (units) in medium with 1 mM lysine / Beta-galactosidase specific activity (units) in medium with 1 mM arginine: glucose-minimal A medium, 37° C.
[1] = test system: wild-type E. coli strain MC4100; assay: Canavanine tolerance of strains, growth in glucose-minimal A medium; assay type: cell-based, Escherichia coli; conditions: scored after 24 hours at 37° C.
[2] = strain GJ4748/pHYD956 (argR), Nil = 217
[3] = strain MC4100/pHYD926/pHYD956 (argP-S94L), Nil = 1557
[4] = strain MC4100/pHYD956, Nil = 20

N=C(N)NOCC[C@H](N)C(=O)O [canavanine]
transcription of the yggA gene upon supplementation of the culture medium (yggA transcription): induced
growth of MC4100 (canavanine tolerance) ([1]; 20 micrograms/ml of canavanine): resistant
growth of MC4100 (canavanine tolerance) ([1]; 65 micrograms/ml of canavanine in the presence of uracil at 40 micrograms/ml): sensitive

NCCCC[C@H](N)C(=O)O [lysine]
Beta-galactosidase specific activity (units) in medium with 1 mM lysine (yggA transcription; [2]): 29 units
Beta-galactosidase specific activity (units) in medium with 1 mM lysine (yggA transcription; [3]): 1616 units
Beta-galactosidase specific activity (units) in medium with 1 mM lysine (yggA transcription; [4]): 14 units
transcription of the yggA gene upon supplementation of the culture medium (yggA transcription): substantially repressed

N=C(N)NCCC[C@H](N)C(=O)O [arginine]
Beta-galactosidase specific activity (units) in medium with 1 mM arginine (yggA transcription; [2]): 424 units
Beta-galactosidase specific activity (units) in medium with 1 mM arginine (yggA transcription; [3]): 1514 units
Beta-galactosidase specific activity (units) in medium with 1 mM arginine (yggA transcription; [4]): 66 units
transcription of the yggA gene upon supplementation of the culture medium (yggA transcription): induced

NC(=O)NCCC[C@H](N)C(=O)O [citrulline]
transcription of the yggA gene upon supplementation of the culture medium (yggA transcription): induced
